# Test results published in patent US7989466B2, “Methods to inhibit or augment an inflammatory response” (Cambridge Enterprise Limited, priority 1999, dated 2011).
# Positions of bridges follow the written chain, without caps; N, C: chain ends. Non-standard residues stand in square brackets, D forms with d. Residues, ends and D or L forms follow the SMILES beside them.
# Key:
# [1] = Stability against acid hydrolysis and trypsin; assay type: in vitro ADME; settings: 5 units trypsin for 2 hrs at 37° C.
# Experimental: For example, to prepare a peptide 3 derivative, peptide 3(3-12)[MCP-1] was modified according to Jameson et al. (Nature, 368, 744 (1994)), which yielded CRD-Cys13Leu4Ile11peptide 3(3-12)[MCP-1] (FIG. 3). CRD-Cys13Leu4Ile11peptide 3(3-12)[MCP-1], which had very similar properties to peptide 3(1-12)[MCP-1] […] CRD-Cys13Leu4Ile11peptide 3(3-12)[MCP-1] was also resistant to hydrolysis in vivo and allowed therapeutically useful plasma concentrations to be achieved (>10 μM 24 hours after a single intraperitoneal dose of 1 mg of CRD-Cys13Leu4Ile11peptide 3(3-12)[MCP-1] in 250 μL saline).
# [2] = Acute and 7-day repeat dose rat toxicity; assay type: in vivo; settings: 1 or 10 mg (5-50 mg/kg) i.v.
# From the text: That is, all animals remained clinically normal throughout.
# [3] = system: splenocyte recall response to Ova; experiment: Splenocyte recall cultures from ovalbumin-challenged treated mice; assay type: in vivo, mouse; set-up: IL-4, Avg. of Group: unit not given here
# Experimental: In another study, BALB/c mice were sensitized with 0.1 mg of ovalbumin (OVA) or PBS (diluent control) intraperitoneally. Eight days following initial sensitization mice were challenged intratracheally with 1% ovalbumin or PBS (diluent control). On days fifteen, eighteen, twenty one, and thirty four, mice were challenged intratracheally with 2% ovalbumin of PBS. […] Thirty minutes following treatment, mice were challenged intratracheally with 2% OVA and sacrificed 3 hours after OVA challenge. […] On day 34 mice were re-challenged intratracheally with either 2% OVA or PBS. Mice were sacrificed 3 hours after challenge. Following sacrifice on day 21 or 34, lungs were collected for histopathology and for isolation of cells for total cell counts and identification by FACS analysis. Serum was collected for IgE and IL-4 levels. Spleens were collected for cytokine and antibody recall responses.
# [4] = system: chemokine induced calcium flux; experiment: Intracellular calcium flux in THP-1 cells (Fura2); assay type: cell-based, human
# Experimental: CRD-Leu4Ile11Cys13 peptide 3(3-12)[MCP-1] at 6.7 μg/ml was incubated with THP-1 cells (2×10^6 cells/ml) for 25 minutes prior to exposure to agonist (10 ng/ml) and measurement of flux. The second exposure to agonist is 2 minutes later. Fluorescence is measured at 510 nm.
# Monocytes, eosinophils, neutrophils and lymphocytes loaded with Fura-2 (0.1 nmol/10^5 cells) are stimulated with a chemokine in the presence or absence of the therapeutic agent, and [Ca^2+]i-related fluorescence changes are recorded (Von Tschanner et al., Nature, 324, 369 (1986)). […] The Fura-2 fluorescence of the monocyte suspension is measured at 37° C. in a single excitation, single emission (500 nm) wavelength Perkin-Elmer LS5 fluorometer. [Ca^2+]i is calculated from changes in fluorescence measured at a single excitation wavelength of 340 nm.
# After peptide 3 binds to its receptor, it may block proteins required to effect the response (e.g., block specific integrins needed for chemokine-induced migration but not fNLP or TGFb induced migration), down regulate a chemokine receptor, or interfere with signal transduction mechanisms. Interference with signal transduction mechanisms can be detected in either a direct or indirect manner (for example, using assays for measuring intracellular calcium flux, cAMP, pI3, kinase activity, and DAG).
# [5] = system: T cell-dependent antibody response; experiment: Antibody response in mice immunized with sheep red blood cells; assay type: in vivo, mouse; settings: T cell-independent response not prevented
# [6] = system: lung CD3, CD4, B220 cells; experiment: Lung cell number and type in normal mice; assay type: in vivo, mouse; settings: high dose, all routes of administration, versus PBS controls
# Experimental: To determine whether increasing doses of CRD-Leu4Ile11Cys13 peptide 3(3-12)[MCP-1] alters the cell number and type of cell within the lungs of normal mice, mice were injected intravenously, intravenously and intratracheally, or intratracheally alone with CRD-Leu4Ile11Cys13 peptide 3(3-12)[MCP-1]. Mice were sacrificed at 20-24 hours post injection. Lungs were collected for isolation of cells, which were subsequently counted and characterized by surface staining for CD3, CD4, CD8, B220, and Mac-1.
Compound,stability against enzymatic destruction [1],"acute rat toxicity, clinical findings [2]","IL-4, Avg. of Group ([3]; Group 5: Ova days 8, 15, 18, 21, peptide BID 14 days, sacrifice day 34 (No recent Ova challenge), 0 μg/ml Ova)","Total IgE (1 week splenocyte cultures) ([3]; Group 5, 5 μg/ml Ova)","Total IgE (1 week splenocyte cultures), Avg. ([3]; Group 5, 5 μg/ml Ova)",effect on MCP-1 induced calcium flux [4],effect on SDF-1 induced calcium flux [4],T cell-dependent antibody response [5],"percentages of CD3, CD4 and B220 cells in lungs of normal mice [6]",pKa (physchem),solubility (physchem; organic solvent or mixture),"solubility (physchem; pH 11, water)"
CC[C@@H](C)[C@H]1NC(=O)[C@@H](CCC(N)=O)NC(=O)[C@H](N)CSSC[C@H](C(N)=O)NC(=O)[C@@H](CC(C)C)NC(=O)[C@@H](CC(=O)O)NC(=O)[C@H]2CCCN2C(=O)[C@@H](CCCCN)NC(=O)[C@@H](CCC(N)=O)NC(=O)[C@@H](CCCCN)NC(=O)[C@@H](Cc2c[nH]c3ccccc23)NC1=O (H-[dC][dQ][dI][dW][dK][dQ][dK][dP][dD][dL][dC]-NH2; disulfide 1-11; N-terminus assumed),stable,no clinically detectable changes,8.05,0.082 ng/mL,0.021,did not block,did block,prevented,significantly reduced,–,–,–
"C=CCCCCCCCCC(=O)N[C@H]1CCC(=O)NC1=O [A-I (NR58.4), [3S]-3-(undec-10-enoylamino)piperidine-2,6-dione]",–,–,–,–,–,–,–,–,–,~11,> 200000 µg/mL,5000 µg/mL
